Laboratory results as given in paper PMC7955127, “Preclinical small molecule WEHI-7326 overcomes drug resistance and elicits response in patient-derived xenograft models of human treatment-refractory tumors” (Cell Death & Disease, 2021).

Assays:
[1] = HepG2 cytotoxic assay; assay type: cell-based; conditions: human; HepG2 cells, cell viability after 48 h
Protocol: a Chemical structures of the triazine-based anti-mitotics used in this study. b Dose-dependent antiproliferative activity of key derivatives and comparison with commonly used anti-mitotics in SW480 cell line: Data shown is cell viability (as measured by CellTiterGlo) after 72 h relative to untreated control cells. Shown is mean of 3 independent experiments performed in duplicate +/- SEM. c Dose-dependent cell cycle analysis of key derivatives of WEHI-7326 development in SW480 cell line. Data are presented as percentage of cells in G2/M or subG0 after 24 h incubation with titration of inhibitors as assessed by PI staining and flow cytometry. Mean average of 3 experiments +/- SEM. d Comparison of IC50 and EC50 values of triazine compounds and anti-mitotic drugs in SW480 cell line: inhibition of cellular proliferation and cell cycle arrest in G2/M. IC50 and EC50 values are the mean of 3 independent experiments run in duplicates +/- SEM (n.d. = not determined). e HepG2 cytotoxic assay: cell viability assay after 48 h, normalised to 0.4% DMSO (100% viability) and 2 μM bortezomib (0% viability). The data is the mean average of 2 experiments +/- SD.

[2] = tested on: CEM dEpoB30; test: Cell growth inhibition assay, CEM dEpoB30; assay type: cell-based; conditions: Homo sapiens; CEM dEpoB30, leukemia (taxane resistant, β-tubulin mutation); 72 h, Alamar Blue; mean of 3 ± SEM; read-out: IC50 (inhibition of cellular proliferation)
Protocol: Cells were plated at a density of between 500 to 5000 cells per well for adherent cell lines depending on doubling time, and 15,000 cells per well for lymphoblastic leukemia cell lines, in a 96-well plate in 200 μl of growth media. Plates were incubated overnight at 37 °C before adding the inhibitors. Inhibitors were serially diluted from the stock solutions in complete medium and added to the cells. […] Cell viability was assessed by the AlamarBlue (Invitrogen) or CellTiterBlue/Glo (Promega) method according to manufacturer’s instructions. The curve fits and IC50 values were generated in PRISM (GraphPad, San Diego, CA).
Parental human lymphoblastic leukemia cells (CEM) and their drug resistant derivatives (dEpoB30 and dEpoB300) were cultured in the presence of increasing amounts of WEHI-7326, paclitaxel or epothilone B. Cell survival was determined as described in Experimental Procedures. Shown are mean of 3 experiments +/- SEM. Dose response curves were fitted in PRISM using non-linear regression (4 parameter logistic) to calculate IC50 values.

[3] = tested on: MH792 LUSC PDX; test: LUSC PDX model MH792; assay type: in vivo, NOD-SCID-IL2Rγc–/– mice
Protocol: LUSC PDXs were generated as described in[25]. PDXs at passage 4 were defrosted and washed with PBS before counting. 200,000 to 500,000 cells were then injected in a 50:50 PBS:Matrigel mix into the flanks of NOD-SCID-IL2Rγc–/– male mice. Tumors were measured twice weekly with calipers and treatment started when tumors were between 70–120 mm^3. Mice were assigned to treatment groups based on average tumor volume per group. Mice were culled when tumors reached a volume of 600 mm^3.

[4] = tested on: COG-N-496x neuroblastoma PDX; test: High-risk neuroblastoma PDX COG-N-496x; assay type: in vivo, NSG mice; conditions: COG-N-496x PDX; 20 mg/kg i.v. twice weekly
Protocol: All animal studies were performed in accordance with the guidelines approved by University of New South Wales Animal Care and Ethics Committee (ACEC 17/53B) and in accordance with the requirements of the Australian Code for the Care and Use of Animals for Scientific Purposes. PDX models COG-N-440x and COG-N-496x were obtained from the Childhood Cancer Repository, Texas Tech University Health Sciences Center in Lubbock, TX, USA. 6–8 week old female NSG mice were engrafted by subcutaneous injection with 1 × 10^6 freshly thawed PDX tumor cells into one flank in a mixture of 100 μl RPMI-1640 and 100 μl Matrigel. Mice were monitored for tumor development three times weekly and tumor size measured using digital Vernier calipers. Treatments commenced when tumors reached 50 mm^3, following randomization into treatment arms. […] Mice were treated with either vincristine (0.5 mg/kg, once weekly i.p. in sterile saline for up to 5 weeks), WEHI-7326 (20 mg/kg; twice weekly i.v. in sterile saline for up to 5 weeks) or vehicle (as for WEHI-7326). For the Th-MYCN transgenic mouse model, spontaneous tumor growth in mice homozygous for the MYCN transgene was assessed by abdominal palpation at least twice a week. Treatments commenced once a small palpable tumor (~5 mm) was detected, following randomization to treatment arms. Mice were euthanized upon detection of an abdominal tumor of ~1 cm in diameter. […]

COc1ccc(CNc2nc(NCc3ccc(CN)cc3)nc(NN3CC(=O)NC3=O)n2)cc1 [WEHI-7326]
IC50 at 48 h [1]: > 40 µM
IC50 [2]: 1.67 ± 0.04 nM
Adverse effects in treatment arm ([3]; MH792 PDX mice, 20 mg/kg i.v. twice a week, n = 8–10): 1 with hind limb paralysis after 4 weeks of treatment
Median survival ([3]; MH792 PDX, WEHI-7326 20 mg/kg i.v. biweekly, docetaxel 10 mg/kg i.p. once): 34 days
Median survival [4]: 25 days
